Assay results reported in patent publication US6548666B1, “Tricyclic compounds and their use in medicine process for their preparation and pharmaceutical compositions containing them” (Dr. Reddy's Research Foundation, priority 1997, dated 2003).

What was measured:
hPPARα = target: T1, hPPARα (Homo sapiens, UniProt Q07869); assay: Determination of hPPARα activity (GAL4 fusion luciferase reporter, HEK-293); assay type: cell-based; conditions: 50 μM compound; HEK-293 cells, GAL4-hPPARα LBD reporter
T1 construct: expressed in transfected cells; host or cells: HEK-293
T1 sequence (Q07869 239-466 limits assumed): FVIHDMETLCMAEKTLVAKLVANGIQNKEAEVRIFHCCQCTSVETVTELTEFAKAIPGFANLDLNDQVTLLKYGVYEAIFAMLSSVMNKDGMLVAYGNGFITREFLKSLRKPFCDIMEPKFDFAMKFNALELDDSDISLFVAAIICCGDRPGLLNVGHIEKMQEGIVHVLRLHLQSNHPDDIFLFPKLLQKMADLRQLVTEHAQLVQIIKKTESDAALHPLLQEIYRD
Experimental: Ligand binding domain of hPPARα was fused to DNA binding domain of Yeast transcription factor GAL4 in eucaryotic expression vector. Using superfect (Qiagen, Germany) as transfecting reagent HEK-293 cells were transfected with this plasmid and a reporter plasmid harboring the luciferase gene driven by a GAL4 specific promoter. Compound was added at different concentrations after 42 hrs of transfection and incubated overnight.

hPPARγ1 = target: T2, hPPARγ1 (Homo sapiens, UniProt P37231); assay: Determination of hPPARγ activity (GAL4 fusion luciferase reporter, HEK-293); assay type: cell-based; conditions: 1 μM compound; HEK-293 cells, GAL4-hPPARγ1 LBD reporter
T2 construct: expressed in transfected cells; host or cells: HEK-293
T2 sequence (P37231 238-503 limits assumed): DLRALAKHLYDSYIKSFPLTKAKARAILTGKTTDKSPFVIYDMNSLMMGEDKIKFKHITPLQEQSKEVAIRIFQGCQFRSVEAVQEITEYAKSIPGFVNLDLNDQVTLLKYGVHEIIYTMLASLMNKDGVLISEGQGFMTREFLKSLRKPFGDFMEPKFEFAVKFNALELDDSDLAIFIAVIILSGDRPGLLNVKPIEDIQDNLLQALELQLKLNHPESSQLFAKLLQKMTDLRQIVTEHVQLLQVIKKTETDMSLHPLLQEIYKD
Experimental: Ligand binding domain of hPPARγ1 was fused to DNA binding domain of Yeast transcription factor GAL4 in eucaryotic expression vector. Using lipofectamine (Gibco BRL, USA) as transfecting reagent HEK-293 cells were transfected with this plasmid and a reporter plasmid harboring the luciferase gene driven by a GAL4 specific promoter. Compound was added at 1 μM concentration after 48 hrs of transfection and incubated overnight.

C57BL/KsJ-db/db mice = assay: Blood sugar and triglyceride lowering in db/db mice; assay type: in vivo, mouse
From the text: Mutation in colonies of laboratory animals and different sensitivities to dietary regimens have made the development of animal models with non-insulin dependent diabetes and hyperlipidemia associated with obesity and insulin resistance possible. Genetic models such as db/db and ob/ob (Diabetes, (1982) 31 (1): 1-6) mice and zucker fa/fa rates have been developed by the various laboratories for understanding the pathophysiology of disease and testing the efficacy of new antidiabetic compounds (Diabetes, (1983) 32: 830-838; Annu. Rep. Sankyo Res. Lab. (1994). 46: 1-57). The homozygous animals, C57 BL/KsJ-db/db mice developed by Jackson Laboratory, U.S., are obese, hyperglycemic, hyperinsulinemic and insulin resistant (J. Clin. Invest., (1990) 85: 962-967), whereas heterozygous are lean and normoglycemic. In db/db model, mouse progressively develops insulinopenia with age, a feature commonly observed in late stages of human type II diabetes when blood sugar levels are insufficiently controlled. The state of pancreas and its course vary according to the models. Since this model resembles that of type II diabetes mellitus, the compounds of the present invention were tested for blood sugar and triglycerides lowering activities.
Male C57BL/KsJ-db/db mice of 8 to 14 weeks age, having body weight range of 35 to 60 grams, bred at Dr. Reddy's Research Foundation (DRF) animal house, were used in the experiment. The mice were provided with standard feed (National Institute of Nutrition (NIN), Hyderabad, India) and acidified water, ad libitum. The animals having more than 350 mg/dl blood sugar were used for testing. The number of animals in each group was 4.
Test compounds were suspended on 0.25% carboxymethyl cellulose and administered to test group at a dose of 0.1 mg to 30 mg/kg through oral gavage daily for 6 days. The control group received vehicle (dose 10 mL/kg). On 6 th day the blood samples were collected one hour after administration of test compounds/vehicle for assessing the biological activity.
The random blood sugar and triglyceride levels were measured by collecting blood ([…]) through orbital sinus, using heparinised capillary in tubes containing EDTA which was centrifuged to obtain plasma. The plasma glucose and triglyceride levels were measured spectrometrically, by glucose oxidase and glycerol-3-PO4 oxidase/peroxidase enzyme (Dr. Reddy's Lab. Diagnostic Division Kits, Hyderabad, India) methods respectively.
The blood sugar and triglycerides lowering activities of the test compound was calculated according to the formula.
(§1) 1. Percent reduction in Blood sugar/triglycerides/total cholesterol were calculated according to the formula: [formula]

Swiss albino mice = assay: Plasma triglyceride lowering activity in Swiss albino mice and Guinea pigs; assay type: in vivo, mouse; conditions: dose 1 mg (mg/kg), oral, 6 days; table follows the Swiss albino mice / Guinea pig section
Experimental: Male Swiss albino mice (SAM) and male Guinea pigs were obtained from NIN and housed in DRF animal house. All these animals were maintained under 12 hour light and dark cycle at 25±1° C. Animals were given standard laboratory chow (NIN, Hyderabad, India) and water, ad libitum, SAM of 20-25 g body weight range and Guinea pigs of 500-700 g body weight range were used (Oliver, P., Plancke, M. O., Marzin. D., Clavey, V., Sauzieres, J and Fruchart, J. C. Effects of fenofibrate, gemfibrozil and nicotinic acid on plasma lipoprotein levels in normal and hyperlipidemic mice. Atherosclerosis. 1988. 70: 107-114).
The test compounds were administered orally to Swiss albino mice at 0.3 to 30 mg/kg/day dose for 6 days. Control mice were treated with vehicle (0.25% Carboxymethylcellulose; dose 10 mL/kg). The test compounds were administered orally to Guinea pigs at 0.3 to 30 mg/kg/day dose for 6 days. Control animals were treated with vehicle (0.25% Carboxymethylcellulose; dose 5 mL/kg).
The blood samples were collected in fed state 1 hour after drug administration on 0 and 6 day of treatment. The blood was collected from the retro-orbital sinus through heparinised capillary in EDTA containing tubes. After centrifugation, plasma sample was separation for triglyceride and total cholesterol (Wieland, O. Methods of Enzymatic analysis. Bergemeyer, H. O., Ed., 1963. 211-214; Trinder, P. Ann. Clin. Biochem. 1969. 6: 24-27). Measurement of plasma triglyceride, total cholesterol and HDL were done using commercial kits (Dr. Reddy's Diagnostic Division, Hyderabad, India).
as §1

[1] = 1 mg/kg oral gavage daily for 6 days
[2] = 10 mg/kg oral gavage daily for 6 days
[3] = 3 mg/kg oral gavage daily for 6 days

CC(Cc1ccc(OCCN2c3ccccc3Oc3ccccc32)cc1)(Oc1ccccc1)C(=O)[O-].[Na+] (racemic) [Example 30, (±)3-[4-[2-(Phenoxazin-10-yl)ethoxy]phenyl]-2-phenoxy-2-methylpropanoic acid, sodium salt]
PPARα (fold activation, luciferase activity) (hPPARα): 9.3 Fold | PPARγ (fold activation, luciferase activity) (hPPARγ1): 13.9 Fold | Reduction in Blood Glucose Level (%) (C57BL/KsJ-db/db mice; [1]): 44% | Triglyceride Lowering (%) (C57BL/KsJ-db/db mice; [1]): 05% | Triglyceride Lowering (%) (Swiss albino mice): 58%

CCOC(Cc1ccc(OCCN2c3ccccc3Sc3ccccc32)cc1)C(=O)O (racemic) [Example 11, (±) 3-[4-[2-(Phenothiazin-10-yl)ethoxy]phenyl]-2-ethoxypropanoic acid]
PPARα (fold activation, luciferase activity) (hPPARα): 6.42 Fold | PPARγ (fold activation, luciferase activity) (hPPARγ1): 5.20 Fold | Reduction in Blood Glucose Level (%) (C57BL/KsJ-db/db mice; [2]): 66% | Triglyceride Lowering (%) (C57BL/KsJ-db/db mice; [2]): 50%

CCOC(Cc1ccc2oc(CN3c4ccccc4Sc4ccccc43)cc2c1)C(=O)[O-].[Na+] (racemic) [Example 14, (±) 3-[2-(Phenothiazin-10-yl)methylbenzofuran-5-yl]-2-ethoxypropanoic acid, sodium salt]
Reduction in Blood Glucose Level (%) (C57BL/KsJ-db/db mice; [3]): 52% | Triglyceride Lowering (%) (C57BL/KsJ-db/db mice; [3]): 61%

(−) 3-[4-[2-(Phenoxazin-10-yl)ethoxy]phenyl]-2-ethoxypropanoic acid, magnesium salt [Example 25]
Triglyceride Lowering (%) (Swiss albino mice): 6%

CCOC(Cc1ccc(OCCN2c3ccccc3Oc3ccccc32)cc1)C(=O)O.N=C(N)NCCC[C@H](N)C(=O)O (single isomer, unassigned; (-)) [Example 28, (−) 3-[4-[2-(Phenoxazin-10-yl)ethoxy]phenyl]-2-ethoxypropanoic acid, arginine salt]
Reduction in Blood Glucose Level (%) (C57BL/KsJ-db/db mice; [1]): 40% | Triglyceride Lowering (%) (C57BL/KsJ-db/db mice; [1]): 40% | Triglyceride Lowering (%) (Swiss albino mice): 22%
